{
  "source": "patent US6669939B1",
  "about": "“(Poly)peptides which represent the epitopes of the human herpes virus type 8” (Biotrin International Properties Limited, priority 1998, dated 2003)",
  "system": "anti-EBV antibodies",
  "experiment": "ELISA with EBV control peptide, comparing antibody titers against HHV-8 and EBV",
  "type": "binding, human",
  "protocol": "Various control panels as well as control peptides were used to test the specificity of the HHV-8 antibody ELISA. Using an EBV control peptide (cf. table 2), analyses were carried out to compare antibody titers against HHV-8 and EBV (a closely related herpesvirus). In 56 out of 64 cases the observed antibody titers were at least 30% divergent; the EBV seroprevalence was 86% with HIV-positive patients and 72% with the controls.",
  "data": [
    {"substance": "S G S G Q E P P A P Q A P I (SGSGQEPPAPQAPI; Epstein-Barr virus) [EBV control peptide, control peptide, Epstein-Barr virus strain B95-8, EBNA 6, position 100695-100724, with SGSG spacer]", "values": [
      {"measurement": "EBV seroprevalence", "setting": "HIV-positive patients", "value": 86, "unit": "%"},
      {"measurement": "EBV seroprevalence", "setting": "controls", "value": 72, "unit": "%"}
    ]}
  ]
}
